Assay results published in ChEMBL document CHEMBL1201862, “PubChem BioAssay data set” (2004).
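48-hour exposure; five concentrations; linearly interpolated endpoints. At the GI50, growth is halved.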 Active and inactive are the calls of the source. Rule as the data show it: active = GI50 up to about 1.1 µM and inactive = higher.

Experiments:
Assay in all cases: growth of human tumour cells (NCI), 48 h
HOP-92 = system: HOP-92
M19-MEL = system: M19-MEL
786-0 = system: 786-0
IGROV-1 = system: IGROV-1
HCT-15 = system: HCT-15
RXF 631 = system: RXF 631
M14 = system: M14
SK-MEL-5 = system: SK-MEL-5
U-251 = system: U-251
SW-620 = system: SW-620
OVCAR-5 = system: OVCAR-5
LXFL 529 = system: LXFL 529
EKVX = system: EKVX
UACC-257 = system: UACC-257
OVCAR-8 = system: OVCAR-8
DMS-273 = system: DMS-273
SNB-78 = system: SNB-78
TK-10 = system: TK-10
SF-539 = system: SF-539
NCI-H226 = system: NCI-H226
MOLT-4 = system: MOLT-4
OVCAR-3 = system: OVCAR-3
RXF 393 = system: RXF 393
SK-OV-3 = system: SK-OV-3
HOP-18 = system: HOP-18
SNB-75 = system: SNB-75
ACHN = system: ACHN
SK-MEL-2 = system: SK-MEL-2
COLO 205 = system: COLO 205
UACC-62 = system: UACC-62
NCI-H522 = system: NCI-H522
HCT-116 = system: HCT-116
A498 = system: A498
K562 = system: K562
OVCAR-4 = system: OVCAR-4
KM-20L2 = system: KM-20L2
HT-29 = system: HT-29
CCRF-CEM = system: CCRF-CEM
DLD-1 = system: DLD-1
A549 = system: A549
NCI-H23 = system: NCI-H23
HCC 2998 = system: HCC 2998
XF498 = system: XF498
SN12C = system: SN12C
SK-MEL-28 = system: SK-MEL-28
KM12 = system: KM12
Malme-3M = system: Malme-3M
HOP-62 = system: HOP-62
UO-31 = system: UO-31
SNB-19 = system: SNB-19
DMS-114 = system: DMS-114
SF-268 = system: SF-268
NCI-H460 = system: NCI-H460
LOX IMVI = system: LOX IMVI
SF-295 = system: SF-295
HL-60 = system: HL-60
RPMI-8226 = system: RPMI-8226
CAKI-1 = system: CAKI-1

With `N#CC(C(=O)/C(=N/NC(=O)c1ccccc1O)C(C#N)c1ccc(Br)cc1)c1ccc(Br)cc1` (stereo unspecified) the GI50 (HOP-92) was 16.7 µM (inactive), the GI50 (M19-MEL) was 11.7 µM (inactive) and the GI50 (786-0) was 12.7 µM (inactive). For the same compound, the GI50 (IGROV-1) was 15.7 µM (inactive), the GI50 (HCT-15) was 9.08 µM and the GI50 (RXF 631) was 14.1 µM (inactive). For the same compound, the GI50 (M14) was 14.3 µM (inactive), the GI50 (SK-MEL-5) was 9.55 µM (inactive) and the GI50 (U-251) was 11.6 µM (inactive). The GI50 (SW-620) was 4.02 µM (inactive), the GI50 (OVCAR-5) was 15.7 µM (inactive) and the GI50 (LXFL 529) was 3.32 µM (inactive). The GI50 (EKVX) was 15.6 µM (inactive), the GI50 (UACC-257) was 15.1 µM (inactive) and the GI50 (OVCAR-8) was 6.43 µM (inactive). The GI50 (DMS-273) was 13.4 µM (inactive), the GI50 (SNB-78) was 4.75 µM (inactive) and the GI50 (TK-10) was 24.4 µM (inactive). For the same compound, the GI50 (SF-539) was 10.6 µM (inactive), the GI50 (NCI-H226) was 5.52 µM (inactive) and the GI50 (MOLT-4) was 3.93 µM (inactive). For the same compound, the GI50 (OVCAR-3) was 13.5 µM (inactive), the GI50 (RXF 393) was 4.71 µM (inactive) and the GI50 (SK-OV-3) was 36.8 µM (inactive). For the same compound, the GI50 (HOP-18) was 8.41 µM (inactive), the GI50 (SNB-75) was 2.99 µM (inactive) and the GI50 (ACHN) was 13.7 µM (inactive). For the same compound, the GI50 (SK-MEL-2) was 12.2 µM (inactive), the GI50 (COLO 205) was 16.5 µM (inactive) and the GI50 (UACC-62) was 6.71 µM (inactive). For the same compound, the GI50 (NCI-H522) was 11.4 µM (inactive), the GI50 (HCT-116) was 12.9 µM (inactive) and the GI50 (A498) was 13.7 µM (inactive). For the same compound, the GI50 (K562) was 5.74 µM (inactive), the GI50 (OVCAR-4) was 15.6 µM (inactive) and the GI50 (KM-20L2) was 15.4 µM (inactive). The GI50 (HT-29) was 13.3 µM (inactive), the GI50 (CCRF-CEM) was 2.23 µM (inactive) and the GI50 (DLD-1) was 4.79 µM (inactive). The GI50 (A549) was 14.2 µM (inactive), the GI50 (NCI-H23) was 4.74 µM (inactive) and the GI50 (HCC 2998) was 12.1 µM (inactive). The GI50 (XF498) was 13.7 µM (inactive), the GI50 (SN12C) was 9.12 µM (inactive) and the GI50 (SK-MEL-28) was 13.8 µM (inactive). For the same compound, the GI50 (KM12) was 12.9 µM (inactive), the GI50 (Malme-3M) was 11.9 µM (inactive) and the GI50 (HOP-62) was 14.4 µM (inactive). The GI50 (UO-31) was 13.3 µM (inactive), the GI50 (SNB-19) was 11.6 µM (inactive) and the GI50 (DMS-114) was 15.7 µM (inactive). The GI50 (SF-268) was > 10 µM (inactive), the GI50 (NCI-H460) was 14.2 µM (inactive) and the GI50 (LOX IMVI) was 7.82 µM (inactive). The GI50 (SF-295) was 14.5 µM (inactive).
With `O=C1C[C@H]2CCCN2[C@@H](c2ccccc2)C1` the GI50 (HOP-92) was > 100 µM (inactive), the GI50 (M19-MEL) was > 100 µM (inactive) and the GI50 (786-0) was > 100 µM (inactive). The GI50 (HL-60) was > 100 µM (inactive), the GI50 (IGROV-1) was > 100 µM (inactive) and the GI50 (HCT-15) was over 100 µM. For the same compound, the GI50 (RXF 631) was > 100 µM (inactive), the GI50 (M14) was > 100 µM (inactive) and the GI50 (SK-MEL-5) was > 100 µM (inactive). For the same compound, the GI50 (U-251) was > 100 µM (inactive), the GI50 (SW-620) was > 100 µM (inactive) and the GI50 (OVCAR-5) was > 100 µM (inactive). The GI50 (LXFL 529) was > 100 µM (inactive), the GI50 (EKVX) was > 100 µM (inactive) and the GI50 (UACC-257) was > 100 µM (inactive). For the same compound, the GI50 (OVCAR-8) was > 100 µM (inactive), the GI50 (DMS-273) was > 100 µM (inactive) and the GI50 (SNB-78) was > 100 µM (inactive). For the same compound, the GI50 (TK-10) was > 100 µM (inactive), the GI50 (SF-539) was > 100 µM (inactive) and the GI50 (NCI-H226) was > 100 µM (inactive). The GI50 (MOLT-4) was > 100 µM (inactive), the GI50 (OVCAR-3) was > 100 µM (inactive) and the GI50 (RXF 393) was > 100 µM (inactive). The GI50 (SK-OV-3) was > 100 µM (inactive), the GI50 (HOP-18) was > 100 µM (inactive) and the GI50 (SNB-75) was > 100 µM (inactive). The GI50 (ACHN) was > 100 µM (inactive), the GI50 (SK-MEL-2) was > 100 µM (inactive) and the GI50 (COLO 205) was > 100 µM (inactive). The GI50 (RPMI-8226) was > 100 µM (inactive), the GI50 (UACC-62) was > 100 µM (inactive) and the GI50 (NCI-H522) was > 100 µM (inactive). The GI50 (HCT-116) was > 100 µM (inactive), the GI50 (A498) was > 100 µM (inactive) and the GI50 (K562) was > 100 µM (inactive). For the same compound, the GI50 (OVCAR-4) was > 100 µM (inactive), the GI50 (KM-20L2) was > 100 µM (inactive) and the GI50 (HT-29) was > 100 µM (inactive). The GI50 (CCRF-CEM) was > 100 µM (inactive), the GI50 (A549) was > 100 µM (inactive) and the GI50 (NCI-H23) was > 100 µM (inactive). The GI50 (HCC 2998) was > 100 µM (inactive), the GI50 (XF498) was > 100 µM (inactive) and the GI50 (SN12C) was > 100 µM (inactive). The GI50 (SK-MEL-28) was > 100 µM (inactive), the GI50 (KM12) was > 100 µM (inactive) and the GI50 (Malme-3M) was > 100 µM (inactive). The GI50 (HOP-62) was > 100 µM (inactive), the GI50 (UO-31) was > 100 µM (inactive) and the GI50 (SNB-19) was > 100 µM (inactive). The GI50 (CAKI-1) was > 100 µM (inactive), the GI50 (SF-268) was > 100 µM (inactive) and the GI50 (NCI-H460) was > 100 µM (inactive). For the same compound, the GI50 (LOX IMVI) was > 100 µM (inactive) and the GI50 (SF-295) was > 100 µM (inactive).
